Data from doi:10.1101/2024.05.30.596624v1 (biorxiv, 2024).
Converted amounts (≈) assume the structure as drawn.

What was measured:
[1] = target: AMPK α1β2γ1 (Homo sapiens, UniProt O43741+Q13131); assay: Caliper mobility shift kinase assay, FAM-SAMS peptide; format: biochemical
[2] = target: AMPK α1β1γ1 (Homo sapiens, UniProt Q13131+Q9Y478); assay: as above; format: biochemical
[3] = tested on: HepG2; assay: cells; conditions: Homo sapiens, HepG2, read-out: Hu HepG2 EC50
[4] = physchem; conditions: aqueous phosphate buffer, pH 7.4, aqueous buffer
[5] = in vitro; conditions: human, plasma
[6] = physchem; conditions: 1-octanol/phosphate buffer, pH 7.4
[7] = in vitro; conditions: human, Caco-2
[8] = in vitro; conditions: human, liver microsomes
[9] = in vitro; conditions: human, hepatocytes
[10] = in vitro; conditions: rat, hepatocytes
[11] = in vitro; conditions: mouse, hepatocytes

Sequence of AMPK α1β2γ1 (Q13131 whole entry): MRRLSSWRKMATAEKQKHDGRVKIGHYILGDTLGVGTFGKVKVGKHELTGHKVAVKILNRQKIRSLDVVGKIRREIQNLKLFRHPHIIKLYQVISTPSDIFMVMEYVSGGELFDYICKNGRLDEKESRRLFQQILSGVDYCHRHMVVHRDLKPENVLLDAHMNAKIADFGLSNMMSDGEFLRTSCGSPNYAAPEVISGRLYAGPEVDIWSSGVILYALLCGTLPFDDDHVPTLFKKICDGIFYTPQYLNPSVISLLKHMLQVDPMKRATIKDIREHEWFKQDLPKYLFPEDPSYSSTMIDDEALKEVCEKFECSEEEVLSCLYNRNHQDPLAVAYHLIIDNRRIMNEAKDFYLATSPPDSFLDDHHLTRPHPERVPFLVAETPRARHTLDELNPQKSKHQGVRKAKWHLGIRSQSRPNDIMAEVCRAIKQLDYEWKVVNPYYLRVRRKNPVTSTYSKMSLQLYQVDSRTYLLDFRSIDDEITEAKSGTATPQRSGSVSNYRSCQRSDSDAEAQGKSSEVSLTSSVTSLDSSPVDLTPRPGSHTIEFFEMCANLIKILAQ
Sequence of AMPK α1β2γ1 (O43741 whole entry): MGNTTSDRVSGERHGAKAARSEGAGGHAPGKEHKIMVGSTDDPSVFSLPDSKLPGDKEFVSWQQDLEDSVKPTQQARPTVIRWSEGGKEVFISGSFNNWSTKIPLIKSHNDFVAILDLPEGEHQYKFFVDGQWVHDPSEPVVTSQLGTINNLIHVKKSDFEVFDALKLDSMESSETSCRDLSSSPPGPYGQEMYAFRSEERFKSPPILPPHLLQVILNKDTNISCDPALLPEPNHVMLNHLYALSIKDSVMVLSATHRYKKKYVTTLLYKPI
Sequence of AMPK α1β2γ1 (P54619 whole entry partner): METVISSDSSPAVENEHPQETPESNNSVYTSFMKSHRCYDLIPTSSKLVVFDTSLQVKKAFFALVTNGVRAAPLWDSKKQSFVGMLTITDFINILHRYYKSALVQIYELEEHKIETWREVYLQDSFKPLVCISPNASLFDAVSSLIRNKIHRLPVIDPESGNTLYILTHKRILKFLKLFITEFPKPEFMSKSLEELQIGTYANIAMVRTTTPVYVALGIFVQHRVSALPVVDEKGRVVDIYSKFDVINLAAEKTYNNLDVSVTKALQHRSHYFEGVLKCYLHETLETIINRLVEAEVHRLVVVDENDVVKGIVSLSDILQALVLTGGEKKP
Sequence of AMPK α1β1γ1 (Q13131 whole entry): as the sequence (Q13131 whole entry) above
Sequence of AMPK α1β1γ1 (Q9Y478 2-270): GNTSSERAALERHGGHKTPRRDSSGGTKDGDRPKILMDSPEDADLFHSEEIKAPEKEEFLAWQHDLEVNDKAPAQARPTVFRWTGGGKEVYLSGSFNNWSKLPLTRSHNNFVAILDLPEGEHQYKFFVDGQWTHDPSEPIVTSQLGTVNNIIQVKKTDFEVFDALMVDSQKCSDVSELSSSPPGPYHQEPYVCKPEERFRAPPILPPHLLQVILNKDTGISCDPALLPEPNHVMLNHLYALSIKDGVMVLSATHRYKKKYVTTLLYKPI
Sequence of AMPK α1β1γ1 (P54619 whole entry partner): as the sequence (P54619 whole entry partner) above

Q: Which results are given for `CS(C)(=O)=Nc1ccc(-c2ccc(-c3nc4[nH]c(O[C@@H]5CO[C@H]6[C@@H]5OC[C@H]6O)nc4cc3Cl)cc2)cc1` [BI9774]?
A: EC50 [1]: 63.1 ± 14.7 nM; EC50 [2]: 20 ± 9.5 nM; EC50 [3]: 83.2 nM; solubility at 27 h [4]: 8 µM (≈ 4.33 µg/mL); fraction unbound [5]: 0.037; logD [6]: 2.8; Papp [7]: 26 ×10⁻⁶ cm/s; microsomal CLint [8]: < 3 µL/min/mg; hepatocyte CLint [9]: < 1 µL/min/1e6 cells; hepatocyte CLint [10]: < 1.4 µL/min/1e6 cells; hepatocyte CLint [11]: 8.6 µL/min/1e6 cells
